This is an account of results in patent publication US11590117B2, “Treatment of a hematologic malignancy with 2-(4-chlorophenyl)-n-((2-(2,6-dioxopiperidin-3-yl)-1-oxoisoindolin-5-yl)methyl)-2,2-difluoroacetamide” (priority 2016, dated 2023).

Series [1] can be described thus: Dynamic vapor sorption (DVS) analysis. In kind it is physicochemical. To be noted: relative humidity increased from about 0% to about 90% RH. The procedure:
In certain embodiments, Form A is characterized by dynamic vapor sorption analysis. […] In certain embodiments, Form A comprises less than 0.1% water as determined in a coulometric Karl Fischer (KF) titrator equipped with an oven sample processor set at 225° C.
In certain embodiments, Form B is characterized by dynamic vapor sorption analysis. […] In certain embodiments, Form B comprises less than 0.1% water as determined in a coulometric Karl Fischer (KF) titrator equipped with an oven sample processor set at 225° C.
In certain embodiments, Form C is characterized by dynamic vapor sorption analysis. […] In certain embodiments, Form C comprises less than 0.1% water as determined in a coulometric Karl Fischer (KF) titrator equipped with an oven sample processor set at 225° C.

The subject of series [2] is HL-60 human AML cells. Briefly: HL-60 IV AML xenograft model, survival study. In kind it is in vivo, SCID mice. To be noted: positive control; p<0.05 vs vehicle. The procedure: In this study, Compound 1 antitumor activity in the HL-60 IV AML xenograft model was studies. In this model, HL-60 human AML cells engraft in host BM and internal organs (eg, spleen, liver) and animals develop progressive peripheral leukocytosis. Female severe combined immunodeficiency (SCID) mice were inoculated with HL-60 cells by tail vein injection. To understand the effect of Compound 1 on the xenografted HL-60 cells, animals were dosed intraperitoneal (IP) with vehicle or Compound 1 (0.5, 1, 2.5, and 5 mg/kg) once daily (QD)×5 between Weeks 3 and 4 post-engraftment (AP6516, survival study) or animals were dosed IP twice daily (BID) with vehicle or Compound 1 for 5 or 10 consecutive days (5 mg/kg BID×5 or 2.5 mg/kg, BID×10) between Weeks 6 and 8 post-engraftment (Study AP6982, % human CD33+[hCD33+] cells in BM).
Tumor burden from the peripheral blood of HL-60-bearing animals was assessed by fluorescence-activated cell sorting (FACS) at Week 7 post-tumor cell inoculation. […] Mice from the vehicle control and Compound 1 treatment groups succumbed to disease burden starting on Day 54 for the vehicle control group and between Day 51 and Day 57 for the Compound 1 treatment groups. […] One mouse (1/8) from the 2.5 mg/kg Compound 1-treated group survived to study termination on Day 162.

The format of series [3] is physicochemical. From the text: In certain embodiments, the compound for use in the methods is an anhydrous Form C of 2-(4-chlorophenyl)-N-((2-(2,6-dioxopiperidin-3-yl)-1-oxoisoindolin-5-yl)methyl)-2,2-difluoroacetamide.
In certain embodiments, Form C is obtained by slurrying 2-(4-chlorophenyl)-N-((2-(2,6-dioxopiperidin-3-yl)-1-oxoisoindolin-5-yl)methyl)-2,2-difluoroacetamide in certain solvent systems, for example, solvent systems comprising one or more of the following solvents: acetonitril/water, acetone, or ethanol/water for extended period of time.

On to `O=C1CCC(N2Cc3cc(CNC(=O)C(F)(F)c4ccc(Cl)cc4)ccc3C2=O)C(=O)N1` (centres unmarked) [Form B, 2-(4-chlorophenyl)-N-((2-(2,6-dioxopiperidin-3-yl)-1-oxoisoindolin-5-yl)methyl)-2,2-difluoroacetamide], for which the “water uptake (DVS)” value in series [1] is recorded as “about 1.4 % w/w”. In the case of `Nc1nc(F)nc2c1ncn2[C@@H]1O[C@H](CO)[C@@H](O)[C@@H]1O` [fludarabine, reference compound], the median survival in series [2] stood at 76 days.

Regarding `O=C1CCC(N2Cc3cc(CNC(=O)C(F)(F)c4ccc(Cl)cc4)ccc3C2=O)C(=O)N1` (centres unmarked) [Form C, 2-(4-chlorophenyl)-N-((2-(2,6-dioxopiperidin-3-yl)-1-oxoisoindolin-5-yl)methyl)-2,2-difluoroacetamide], in series [1], the “water uptake (DVS)” value was “about 0.6 % w/w”. Besides, the “thermodynamic stability among the crystal forms” value in series [3] was “most thermodynamically stable anhydrate”.

As to `O=C1CCC(N2Cc3cc(CNC(=O)C(F)(F)c4ccc(Cl)cc4)ccc3C2=O)C(=O)N1` (centres unmarked) [Form A, 2-(4-chlorophenyl)-N-((2-(2,6-dioxopiperidin-3-yl)-1-oxoisoindolin-5-yl)methyl)-2,2-difluoroacetamide], in series [1], the “water uptake (DVS)” value is “about 1.2 % w/w”.
